How the values were obtained:
RAW264.7 [1] = assay: Antiinflammatory activity in mouse RAW264.7 cells assessed as decrease in IFN-gamma and LPS-induced IL-1beta production by measuring IL-1beta level at 12.5 uM after 24 hrs by ELISA (reference value: 73.3 +/- 1.8 pg/mg); assay type: functional
RAW264.7 [2] = assay: Antiinflammatory activity in mouse RAW264.7 cells assessed as decrease in IFN-gamma and LPS-induced IL-1beta production by measuring IL-1beta level at 3.1 uM after 24 hrs by ELISA (reference value: 73.3 +/- 1.8 pg/mg); assay type: functional
RAW264.7 [3] = assay: Antiinflammatory activity in mouse RAW264.7 cells assessed as decrease in IFN-gamma and LPS-induced IL-1beta production at 25 uM after 24 hrs by ELISA; assay type: functional
RAW264.7 [4] = assay: Antiinflammatory activity in mouse RAW264.7 cells assessed as decrease in IFN-gamma and LPS-induced IL-1beta production by measuring IL-1beta level at 25 uM after 24 hrs by ELISA (reference value: 73.3 +/- 1.8 pg/mg); assay type: functional
[5] = Cytotoxicity in LPS-stimulated mouse RAW264.7 cells assessed as reduction in cell viability incubated for […] by alamar blue dye based colorimetric assay; assay type: toxicity; details: LPS-stimulated RAW264.7 cells
RAW264.7 [6] = assay: Antiinflammatory activity in mouse RAW264.7 cells assessed as decrease in IFN-gamma and LPS-induced IL-1beta production by measuring IL-1beta level at 6.3 uM after 24 hrs by ELISA (reference value: 73.3 +/- 1.8 pg/mg); assay type: functional
RAW264.7 [7] = assay: Antiinflammatory activity in mouse RAW264.7 cells assessed as decrease in IFN-gamma and LPS-induced nitric oxide production after 24 hrs by ELISA; assay type: functional, cell-based; details: RAW264.7, 24 h
RAW264.7 [8] = assay: Antiinflammatory activity in mouse RAW264.7 cells assessed as decrease in IFN-gamma and LPS-induced IL-1beta production at 50 uM after 24 hrs by ELISA; assay type: functional
RAW264.7 [9] = assay: Antiinflammatory activity in mouse RAW264.7 cells assessed as decrease in IFN-gamma and LPS-induced IL-1beta production by measuring IL-1beta level at 50 uM after 24 hrs by ELISA (reference value: 73.3 +/- 1.8 pg/mg); assay type: functional
RAW264.7 [10] = assay: Antiinflammatory activity in mouse RAW264.7 cells assessed as decrease in IFN-gamma and LPS-induced IL-1beta production by measuring IL-1beta level at 16.7 uM after 24 hrs by ELISA (reference value: 73.3 +/- 1.8 pg/mg); assay type: functional
RAW264.7 [11] = assay: Antiinflammatory activity in mouse RAW264.7 cells assessed as decrease in IFN-gamma and LPS-induced IL-1beta production by measuring IL-1beta level at 4.2 uM after 24 hrs by ELISA (reference value: 73.3 +/- 1.8 pg/mg); assay type: functional
RAW264.7 [12] = assay: Antiinflammatory activity in mouse RAW264.7 cells assessed as decrease in IFN-gamma and LPS-induced IL-1beta production by measuring IL-1beta level at 2.1 uM after 24 hrs by ELISA (reference value: 73.3 +/- 1.8 pg/mg); assay type: functional
RAW264.7 [13] = assay: Antiinflammatory activity in mouse RAW264.7 cells assessed as decrease in IFN-gamma and LPS-induced IL-1beta production by measuring IL-1beta level at 8.4 uM after 24 hrs by ELISA (reference value: 73.3 +/- 1.8 pg/mg); assay type: functional
RAW264.7 [14] = assay: Antiinflammatory activity in mouse RAW264.7 cells assessed as decrease in IFN-gamma and LPS-induced IL-1beta production at 6.7 uM after 24 hrs by ELISA; assay type: functional
RAW264.7 [15] = assay: Antiinflammatory activity in mouse RAW264.7 cells assessed as maximum decrease in IFN-gamma and LPS-induced IL-1beta production after 24 hrs by ELISA; assay type: functional
RAW264.7 [16] = assay: Antiinflammatory activity in mouse RAW264.7 cells assessed as decrease in IFN-gamma and LPS-induced IL-1beta production by measuring IL-1beta level at 10 uM after 24 hrs by ELISA (reference value: 73.3 +/- 1.8 pg/mg); assay type: functional

Compound | Activity (RAW264.7 [1]) | Activity (RAW264.7 [4]) | CC50 at 24 h [5] | Activity (RAW264.7 [6]) | IC50 (RAW264.7 [7]) | Activity (RAW264.7 [10]) | Activity (RAW264.7 [11]) | Activity (RAW264.7 [12]) | Activity (RAW264.7 [13]) | also measured
COc1cc(C[C@@H](CO)[C@H](COC(=O)CC(=O)O)Cc2ccc(O)c(OC)c2)ccc1O | 66 pg/mg | 53.3 pg/mg | 9.1 µM | 71.1 pg/mg | 173 µM | – | – | – | – | Activity (RAW264.7 [2]): 73.1 pg/mg; Imax (RAW264.7 [3]): 27.3%
COc1cc(C[C@H]2COC(=O)[C@@H](C(=O)O)[C@@H](C)[C@@H](C(=O)O)C(=O)OC[C@@H]2Cc2ccc(O)c(OC)c2)ccc1O | 71.3 pg/mg | 70.2 pg/mg | 23.4 µM | 73.3 pg/mg | > 200 µM | – | – | – | – | Imax (RAW264.7 [8]): 23.5%; Activity (RAW264.7 [9]): 56 pg/mg
C/C=C/C(=O)OC[C@H](Cc1ccc(O)c(OC)c1)[C@H](CO)Cc1ccc(O)c(OC)c1 | – | – | 7.3 µM | – | 92 µM | 49.4 pg/mg | 69.8 pg/mg | 74.1 pg/mg | 65.7 pg/mg | Imax (RAW264.7 [14]): 32.5%
COc1cc(C[C@@H](CO)[C@H](CO)Cc2ccc(O)c(OC)c2)ccc1O [(+)-SECOISOLARICIRESINOL] | – | – | – | – | 132 µM | 73 pg/mg | 73 pg/mg | 74.9 pg/mg | 72.8 pg/mg | Imax (RAW264.7 [15]): 0%
C[C@@H]1C[C@H]2[C@@H]3CCC4=CC(=O)C=C[C@]4(C)[C@@]3(F)[C@@H](O)C[C@]2(C)[C@@]1(O)C(=O)CO [DEXAMETHASONE] | – | – | 4.4 µM | – | – | – | – | – | – | Imax (RAW264.7 [16]): 47.9%
CN(C)c1ccc(C(=C2C=CC(=[N+](C)C)C=C2)c2ccc(N(C)C)cc2)cc1 [GENTIAN VIOLET] | – | – | – | – | 1.1 µM | – | – | – | – | –

From ChEMBL document CHEMBL5126624, “Targeted Isolation of Anti-inflammatory Lignans from Justicia aequilabris by Molecular Networking Approach” (J Nat Prod, 2022)
